The values below come from US20210009557A1, “ACYCLIC CXCR4 INHIBITORS AND USES THEREOF” (X4 Pharmaceuticals, Inc., priority 2017, published 2021).

Data set [1] addresses T1, CXCR-4 transfected U87 cell line (U87.CXCR4) (Homo sapiens, UniProt P61073).
T1 construct: expressed in transfected cells; host or cells: U87 cell line (U87.CXCR4)
Nature of the data set: Intracellular CXCL-12-induced calcium mobilization assay (FLIPR). Type of data set: cell-based. The conditions noted are these: U87.CXCR4 cells; CXCL-12 25-50 ng/mL; compounds added 15 minutes before; read-out: IC50 CXCL-12 Ca2+ flux U87.CXCR4+. Here is the method:
Intracellular calcium mobilization induced by chemokines orchemokine-derived peptides were evaluated using a calcium responsive fluorescent probe and a FLIPR system. The CXCR-4 transfected U87 cell line (U87.CXCR4) cells were seeded in gelatine-coated black-wall 96-well plates at 20,000 cells per well and incubated for 12 hours. Cells were then loaded with the fluorescent calcium probe Fluo-2 acetoxymethyl at 4 μM final concentration in assay buffer (Hanks' balanced salt solution with 20 mM HEPES buffer and 0.2% bovine serum albumin, pH 7.4) for 45 min at 37′C. The intracellular calcium mobilization induced by the CXCL-12 (25-50 ng/mL) was then measured at 37° C. by monitoring the fluorescence as a function of time in all the wells simultaneously using a fluorometric imaging plate reader (FLIPR Tetra, Molecular Devices).
(In general: A change in cytosolic calcium serves as a functional read-out for many receptors and channels.)

Data set [2] concerns the target T2, Jurkat cells expressing CXCR4 (Homo sapiens, UniProt P61073).
T2 construct: Jurkat cells expressing CXCR4; endogenous in cells; host or cells: Jurkat cells
Nature of the data set: Chemokine (CXCL12-AF647) binding inhibition assay. Particulars: CXCL12-AF647 25 ng/mL, read-out: IC50 CXCL-12 binding Jurkat. Here is the method:
Jurkat cells expressing CXCR4 were washed once with assay buffer (Hanks' balanced salt solution with 20 mM HEPES buffer and 0.2% bovine serum albumin, pH 7.4) and then incubated for 15 min at room temperature with the test compounds diluted in assay buffer at dose-dependent concentrations. Subsequently, CXCL12-AF647 (25 ng/mL) was added to the compound-incubated cells. The cells were incubated for 30 min at room temperature. Thereafter, the cells were washed twice in assay buffer, fixed in 1% paraformaldehyde in PBS, and analyzed on the FL4 channel of a FACSCalibur flow cytometer equipped with a 635-nm red diode laser (Becton Dickinson, San Jose, Calif., USA).
The percentages of inhibition of CXCL12-AF647 binding were calculated according to the formula: [1−((MFI−MFINC)/(MFIPC−MFINC))]×100 where MFI is the mean fluorescence intensity of the cells incubated with CXCL12-AF647 in the presence of the inhibitor, MFINC is the mean fluorescence intensity measured in the negative control (i.e., autofluorescence of unlabeled cells), and MFIPC is the mean fluorescence intensity of the positive control (i.e., cells exposed to CXCL12-AF647 alone).

The next data set is described as follows: in vitro. The conditions noted are these: human, Caco-2, pH 7.4. As for the experimental part:
The goal of this assay was to evaluate the intestinal absorption potential of drug candidates using Caco-2 cell lines.
Experimental Procedure • 1. Pre-warm Pre-warm HBSS Buffer in 37° C. water bath • 2. Sonicate Take compounds from −20° C., sonicate for a few minutes (no less than 1 minute) • 3. Solution preparation
For A-to-B Direction: • HBSS buffer with 0.3% DMSO and 5 μM LY: add 150 μL DMSO and 50 μL LY (5 mM) into 50 ml HBSS buffer (pH 7.4). • HBSS buffer with 0.1% DMSO and 5 μM LY: add 50 μL DMSO and 50 μL LY (5 mM) into 50 mL HBSS buffer (pH 7.4).
For B-to-A Direction: • HBSS buffer with 0.3% DMSO: add 150 μL DMSO into 50 ml HBSS buffer (pH 7.4). HBSS buffer with 0.1% DMSO: add 50 μL DMSO into 50 ml HBSS buffer (pH 7.4).
For A-to-B Direction: • Prepare HBSS buffer with 0.4% DMSO: add 200 μL DMSO into 50 ml HBSS buffer (pH 7.4).
For B-to-A Direction: • Prepare HBSS buffer with 0.4% DMSO and 5 μM LY: add 200 μL DMSO and 50 μL LY (5 mM) into 50 ml HBSS buffer (pH 7.4).
• 4. Measure TEER Take cell culture plate out of incubator, wash the cell monolayers with HBSS buffer, and then measure TEER values at Rm temperature. • 5. Centrifuge Centrifuge the compound solution (from step 3) at 4000 rpm for 5 min before loading to donor chambers. • 6. Dosing Add solution based on the volumes listed in the following table (make sure to take extra 100 μL of donor sample for T0 as Backup).
• 7. Apical LYTO samples To determine LY concentration in the apical chamber, take 100 μL sample from apical chambers into an opaque plate for LYTO. • 8. Pre-warm Pre-warm apical and basolateral plates at 37° C. for about 5 min, then begin transport by placing the apical plate onto basolateral plate. • 9. Incubation Keep the plates in incubator at 37° C. for 90 min. • 10.
• Prepare 1× solution: • 3 μL (20×)+57 μL of 0.4% DMSO HBSS+60 μL ACN with IS (Osalmid or Imipramine)—120 μL (1×) • 11. Transport termination Separate the apical plate from the basolateral plate after 90-min incubation. • 12. Measure LY Take 100 μL samples from basolateral plate to an opaque plate as LYT90. • 13. Measure LY concentrations for LYTO and LYT90 by Fluorometer (at excitation of 485 nm/emission of 535 nm). • 14.
Drug permeability: Papp=(VA/(Area×time))×([drug]accepter/(([drug]initial, donor)×Dilution Factor) • Where VA is the volume in the acceptor well, area is the surface area of the membrane and time is the total transport time in seconds.
For Millicell-24 Cell Culture Plates: surface area of the membrane=0.7 cm^2, VA=0.8 mL (A-to-B) or 0.4 mL (B-to-A)

For orientation: IC50 means the concentration needed to halve the response being measured. What is called Papp A→B is the apparent permeability from the apical to the basolateral side of a cell layer. A higher Papp A→B goes with fast passage. The term Papp B→A denotes how fast a substance crosses the layer from the basolateral side. A word on the efflux ratio: it is the permeability from basolateral to apical divided by that in the opposite direction, in the common usage.

Structures are written as SMILES.

T1 sequence (P61073 whole entry): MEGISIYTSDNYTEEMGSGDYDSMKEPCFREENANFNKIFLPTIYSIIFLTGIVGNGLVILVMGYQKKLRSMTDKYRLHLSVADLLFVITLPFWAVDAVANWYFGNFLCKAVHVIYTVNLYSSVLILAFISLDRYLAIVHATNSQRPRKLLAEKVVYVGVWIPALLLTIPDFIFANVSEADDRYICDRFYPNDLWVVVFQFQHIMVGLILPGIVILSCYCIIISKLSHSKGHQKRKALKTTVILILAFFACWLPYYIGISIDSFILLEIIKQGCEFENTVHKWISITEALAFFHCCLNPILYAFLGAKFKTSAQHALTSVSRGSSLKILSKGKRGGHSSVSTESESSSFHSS
T2 sequence (P61073 whole entry): as above

Consider `Cc1cccnc1CN(CCc1c[nH]cn1)Cc1nccs1` [Compound I-52], for which, in data set [1], the IC50 is no less than 1000 nM. Further, the IC50 in data set [2] lay within 100 to 1000 nM. In the data set “in vitro”, the Papp A→B at 90 min, 10 μM is 5 to 10 ×10⁻⁶ cm/s; the Papp B→A at 90 min, 10 μM was greater than 10 ×10⁻⁶ cm/s; the efflux ratio at 90 min, 10 μM is 0.1 to 10.

`Clc1cccnc1CN(CCc1cnc[nH]1)Cc1ncccc1-c1ccccc1` [Compound I-39]: in data set [1], the IC50 was no less than 1000 nM. In addition, the IC50 in data set [2] was 0.01 to 100 nM. Also, in the data set “in vitro”, the Papp A→B at 90 min, 10 μM is greater than 10 ×10⁻⁶ cm/s; the Papp B→A at 90 min, 10 μM is greater than 10 ×10⁻⁶ cm/s; the efflux ratio at 90 min, 10 μM fell in the range of 0.1 to 10.

`CC(c1ccccn1)N(CCc1ccccn1)Cc1nc2ccccc2[nH]1` (centres unmarked) [Compound I-2, N-((1H-benzo[d]imidazol-2-yl)methyl)-2-(pyridin-2-yl)-N-(1-(pyridin-2-yl)ethyl)ethanamine]: in data set [1], the IC50 was 0.01 to 100 nM. The half-inhibitory concentration (IC50) in data set [2] fell in the range of 0.01 to 100 nM. Besides, in “in vitro”, the Papp A→B at 90 min, 10 μM is greater than 10 ×10⁻⁶ cm/s; the Papp B→A at 90 min, 10 μM is greater than 10 ×10⁻⁶ cm/s; the efflux ratio at 90 min, 10 μM was in the range of 0.1 to 10.

Regarding `Cc1cccnc1CN(CCc1c[nH]cn1)Cc1nc2cccc(F)c2n1C` [Compound I-40], the IC50 in data set [1] is no less than 1000 nM. In data set [2], the IC50 was 0.01 to 100 nM. Besides, in the data set “in vitro”, the Papp A→B at 90 min, 10 μM was less than 5 ×10⁻⁶ cm/s; the Papp B→A at 90 min, 10 μM was greater than 10 ×10⁻⁶ cm/s; the efflux ratio at 90 min, 10 μM lay in the range of 10 to 30.

As for `Cc1cccnc1CN(CCC(N)=O)Cc1ncccc1-c1ccccc1` [Compound I-46], the IC50 in data set [1] is no less than 1000 nM. Moreover, in data set [2], the IC50 was in the range of 0.01 to 100 nM. In “in vitro”, the Papp A→B at 90 min, 10 μM was greater than 10 ×10⁻⁶ cm/s; the Papp B→A at 90 min, 10 μM was greater than 10 ×10⁻⁶ cm/s; the efflux ratio at 90 min, 10 μM lay in the range of 0.1 to 10.

Regarding `CC(c1ccccn1)N(CCc1ccccn1)Cc1ccccn1` (centres unmarked) [Compound I-1, 2-(Pyridin-2-yl)-N-(1-(pyridin-2-yl)ethyl)-N-(pyridin-2-ylmethyl)ethan-1-amine], the IC50 in data set [1] is no less than 1000 nM; in data set [2] it was 0.01 to 100 nM.

For `COc1ccnc(CCN(Cc2ncccc2C)Cc2ncccc2C)c1` [Compound I-33], the IC50 in data set [1] is no less than 1000 nM. The IC50 in data set [2] lay within 0.01 to 100 nM. Further, in “in vitro”, the Papp A→B at 90 min, 10 μM is greater than 10 ×10⁻⁶ cm/s; the Papp B→A at 90 min, 10 μM is greater than 10 ×10⁻⁶ cm/s; the efflux ratio at 90 min, 10 μM lay within 0.1 to 10.

With `CC(=O)NCCN(Cc1ncccc1C)[C@H]1CCCc2cccnc21` [Compound I-30], the IC50 in data set [1] was 100 to 1000 nM; in data set [2] it was 0.01 to 100 nM.

For `CC(C)c1cccnc1CN(CCC(N)=O)Cc1ncccc1-c1ccccc1` [Compound I-47], in data set [1], the IC50 is no less than 1000 nM. In data set [2], the IC50 lay within 100 to 1000 nM. Further, in “in vitro”, the Papp A→B at 90 min, 10 μM is greater than 10 ×10⁻⁶ cm/s; the Papp B→A at 90 min, 10 μM was greater than 10 ×10⁻⁶ cm/s; the efflux ratio at 90 min, 10 μM was in the range of 0.1 to 10.

As to `Clc1cccnc1CN(CCc1cnc[nH]1)Cc1nccc2ccccc12` [Compound I-37], in data set [1], the IC50 was in the range of 0.01 to 100 nM. In data set [2], the IC50 lay within 0.01 to 100 nM. In addition, in the data set “in vitro”, the Papp A→B at 90 min, 10 μM was in the range of 5 to 10 ×10⁻⁶ cm/s; the Papp B→A at 90 min, 10 μM is greater than 10 ×10⁻⁶ cm/s; the efflux ratio at 90 min, 10 μM was in the range of 0.1 to 10.

Take `COCCCN(Cc1nc2ccccc2[nH]1)[C@H]1CCCc2cccnc21` [Compound I-18]: the IC50 in data set [1] is 100 to 1000 nM; in data set [2], 0.01 to 100 nM.

As to `COCCc1ccc(OCC(O)CNC(C)C)cc1` (centres unmarked) [Metoprolol, reference compound], in “in vitro”, the Papp A→B at 90 min, 10 μM is greater than 10 ×10⁻⁶ cm/s and the basolateral-to-apical permeability (Papp B→A) at 90 min, 10 μM is greater than 10 ×10⁻⁶ cm/s.

Consider `c1cnc2c(c1)CCC[C@@H]2N(CCC1CCCO1)Cc1nc2ccccc2[nH]1` (some centres unmarked) [Compound I-17], for which the IC50 in data set [1] is no less than 1000 nM; in data set [2], 0.01 to 100 nM.

With `CC[C@H]1OC(=O)[C@H](C)[C@@H](O[C@H]2C[C@@](C)(OC)[C@@H](O)[C@H](C)O2)[C@H](C)[C@@H](O[C@@H]2O[C@H](C)C[C@H](N(C)C)[C@H]2O)[C@](C)(O)C[C@@H](C)C(=O)[C@H](C)[C@@H](O)[C@]1(C)O` [Erythromycin, reference compound], in the data set “in vitro”, the efflux ratio at 90 min, 10 μM is greater than 116.

`CC(=O)NCCCN(Cc1ncccc1C)[C@H]1CCCc2cccnc21` [Compound I-29]: the IC50 in data set [1] is no less than 1000 nM; in data set [2] it was 0.01 to 100 nM.
